Experimental data published in patent US10208033B2, “β-carboline, dihydro-β-carboline and tetrahydro-β-carboline alkaloid derivatives and preparation methods same and use in aspects of preventing and treating plant viruses, fungicides and insecticides” (NANKAI UNIVERSITY, priority 2013, dated 2019).
Where a name gives a salt, the structure may show the parent alone.

Key:
[1] = test system: Colletotrichum orbiculare; experiment: Fungicidal (bactericidal) activity in vitro, PDA colony diameter; assay type: cell-based; settings: 50 mg/kg; for inhibition of growth at 50 mg/kg: Colletotrichum orbiculare, 96 h
[2] = test system: Cercospora arachidicola; experiment: as above; assay type: cell-based; settings: 50 mg/kg; for inhibition of growth at 50 mg/kg: Mycosphaerella arachidis, 96 h
[3] = test system: cotton bollworms; experiment: whole plant or invertebrate; settings: for mortality at 600 mg/kg: Helicoverpa armigera, in Gossypium hirsutum, read-out: Cotton bollworm Mortality (%)
Description: Experimental method of cotton bollworms: feed and drug mixing method: measure 3 mL of prepared solution and add it to about 27 g of newly prepared feed, thereby obtaining needed concentration through dilution by 10 times.

[4] = test system: Fusarium fujikuroi; experiment: Fungicidal (bactericidal) activity in vitro, PDA colony diameter; assay type: cell-based; settings: 50 mg/kg; for inhibition of growth at 50 mg/kg: Fusarium fujikuroi, 96 h
[5] = test system: corn borers; experiment: whole plant or invertebrate; settings: read-out: Corn borer Mortality (%)
[6] = test system: Sclerotinia scleotiorum; experiment: Fungicidal (bactericidal) activity in vitro, PDA colony diameter; assay type: cell-based; settings: 50 mg/kg; for inhibition of growth at 50 mg/kg: Sclerotinia, 96 h
[7] = test system: Macrophoma kawatsukai; experiment: as above; assay type: cell-based; settings: 50 mg/kg
[8] = test system: Botrytis cinerea; experiment: as above; assay type: cell-based; settings: 50 mg/kg; for inhibition of growth at 50 mg/kg: Botrytis cinerea, 96 h
[9] = test system: cucumber fusarium wilt; experiment: as above; assay type: cell-based; settings: 50 mg/kg; for inhibition of growth at 50 mg/kg: Fusarium, 96 h
[10] = test system: potato late blight; experiment: microbe, parasite or virus in culture; assay type: cell-based; settings: for inhibition of growth at 50 mg/kg: Phytophthora infestans, 96 h, read-out: Bactericidal activity (%) potato late blight
[11] = test system: Rhizoctonia solani; experiment: Fungicidal (bactericidal) activity in vitro, PDA colony diameter; assay type: cell-based; settings: 50 mg/kg; for inhibition of growth at 50 mg/kg: Rhizoctonia solani, 96 h
[12] = test system: Alternaria solani; experiment: as above; assay type: cell-based; settings: 50 mg/kg; for inhibition of growth at 50 mg/kg: Alternaria solani, 96 h
[13] = test system: Phytophthora capsici; experiment: as above; assay type: cell-based; settings: 50 mg/kg; for inhibition of growth at 50 mg/kg: Phytophthora capsici, 96 h
[14] = test system: mosquito larvae; experiment: whole plant or invertebrate; settings: for mortality at 5 mg/kg / mortality at 10 mg/kg: Culex pipiens, read-out: Mosquito larvae Mortality (%); for mortality at 5 mg/kg / mortality at 10 mg/kg / Mosquito larvae Mortality (%): 24 h; for activity against culex pipiens larvae (in words): at 5 mg/kg
Summary of the method: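 Early fourth-instar Culex pipiens pallens larvae from an indoor colony, 10 per beaker, exposed to test compound at 5 ppm in water, diluted from a 1000 ppm acetone mother solution. Blank: water containing 0.5 mL test solvent.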

[15] = test system: tobacco mosaic virus (TMV); experiment: Anti-TMV in vivo therapeutic effect; parameters: species or system tobacco mosaic virus (host Nicotiana tabacum L.cv.Xanthi NN); settings: for inhibition at 100 µg/mL / inhibition at 500 µg/mL: Tobacco mosaic virus, read-out: Relative inhibition rate (%) In vivo therapy
[16] = test system: tobacco mosaic virus (TMV); experiment: Anti-TMV in vitro effect (half-leaf soaking); assay type: cell-based, tobacco mosaic virus (host Nicotiana tabacum L.cv.Xanthi NN); settings: for inhibition at 100 µg/mL / inhibition at 500 µg/mL: Tobacco mosaic virus, read-out: Relative inhibition rate (%) In vitro activity
[17] = test system: tobacco mosaic virus (TMV); experiment: Anti-TMV in vivo protective effect; parameters: species or system tobacco mosaic virus (host Nicotiana tabacum L.cv.Xanthi NN); settings: for inhibition at 100 µg/mL / inhibition at 500 µg/mL: Tobacco mosaic virus, read-out: Relative inhibition rate (%) In vivo protection
[18] = test system: Rhizoctonia cereali; experiment: Fungicidal (bactericidal) activity in vitro, PDA colony diameter; assay type: cell-based; settings: 50 mg/kg; for inhibition of growth at 50 mg/kg: Rhizoctonia, 96 h
[19] = test system: armyworms; assay type: in vivo; settings: concentration 600 mg/kg
[20] = test system: Bipolaria maydis; experiment: organism not typed; assay type: cell-based; settings: for inhibition at 50 mg/kg: read-out: Bactericidal activity (%) Bipolaria maydis
[21] = test system: tobacco mosaic virus (TMV); experiment: Anti-TMV in vivo inactivation; parameters: species or system tobacco mosaic virus (host Nicotiana tabacum L.cv.Xanthi NN); settings: for inhibition at 100 µg/mL / inhibition at 500 µg/mL: Tobacco mosaic virus, read-out: Relative inhibition rate (%) In vivo inactivation
[22] = test system: tobacco mosaic virus (TMV); experiment: Anti-TMV activity, overall statements on Table 1; assay type: in vivo, tobacco mosaic virus (host Nicotiana tabacum L.cv.Xanthi NN); settings: 100 μg/mL versus ningnanmycin at 100 μg/mL
[23] = test system: Fusarium graminearumt; experiment: microbe, parasite or virus in culture; assay type: cell-based; settings: for inhibition of growth at 50 mg/kg: Fusarium, 96 h, read-out: Bactericidal activity (%) Fusarium graminearumt
[24] = test system: armyworms, cotton bollworms and corn borers; experiment: Insecticidal activity, overall statements on Table 3; assay type: in vivo; settings: Table 3, 600 mg/kg
[25] = test system: corn borers; settings: concentration 600 mg/kg

CCOC(=O)[C@@H]1Cc2c([nH]c3ccccc23)[C@H](C)N1 [Ib-13, (1S, 3S)-1-methyl-2,3,4,9-tetrahydropyridino [3,4-b] indol-3-ethyl formate]
inhibition of growth at 50 mg/kg [1]: 38.1% | inhibition of growth at 50 mg/kg [2]: 50% | mortality at 600 mg/kg [3]: 30% | inhibition of growth at 50 mg/kg [4]: 42.9% | mortality at 600 mg/kg [5]: 55% | inhibition of growth at 50 mg/kg [6]: 68% | inhibition at 50 mg/kg [7]: 29.4% | inhibition of growth at 50 mg/kg [8]: 68.2% | inhibition of growth at 50 mg/kg [9]: 28.6% | inhibition of growth at 50 mg/kg [10]: 30% | inhibition of growth at 50 mg/kg [11]: 33.9% | inhibition of growth at 50 mg/kg [12]: 55.6% | inhibition of growth at 50 mg/kg [13]: 60.6% | mortality at 5 mg/kg [14]: 60% | mortality at 10 mg/kg [14]: 100% | activity against culex pipiens larvae (in words) [14]: still show high activity | inhibition at 100 µg/mL ([15]; treatment dose 100 μg/mL): 17.5% | inhibition at 500 µg/mL ([15]; treatment dose 500 μg/mL): 43.9% | inhibition at 100 µg/mL ([16]; treatment dose 100 μg/mL): 21.8% | inhibition at 500 µg/mL ([16]; treatment dose 500 μg/mL): 46.5% | inhibition at 100 µg/mL ([17]; treatment dose 100 μg/mL): 18.6% | inhibition at 500 µg/mL ([17]; treatment dose 500 μg/mL): 47.9% | inhibition of growth at 50 mg/kg [18]: 59.4% | Armyworm Mortality (%) [19]: 60% | inhibition at 50 mg/kg [20]: 26.3% | inhibition at 100 µg/mL ([21]; treatment dose 100 μg/mL): 25.7% | inhibition at 500 µg/mL ([21]; treatment dose 500 μg/mL): 50.4% | anti-TMV activity compared with ningnanmycin [22]: equivalent to the activity of commercial variety ningnanmycin | inhibition of growth at 50 mg/kg [23]: 21.4% | activity against armyworms, cotton bollworms and corn borers (in words) [24]: broad-spectrum activity

CCCCNC(=O)[C@@H]1Cc2c([nH]c3ccccc23)[C@H](C)N1 [Ib-16, (1S, 3S)—N-butyl-1-methyl-2,3,4,9-tetrahydro-pyridino [3,4-b] indol-3-formamide]
inhibition of growth at 50 mg/kg [1]: 28.6% | inhibition of growth at 50 mg/kg [2]: 84.6% | mortality at 600 mg/kg [3]: 50% | inhibition of growth at 50 mg/kg [4]: 14.3% | mortality at 600 mg/kg [5]: 50% | inhibition of growth at 50 mg/kg [6]: 0% | inhibition at 50 mg/kg [7]: 33.3% | inhibition of growth at 50 mg/kg [8]: 18.2% | inhibition of growth at 50 mg/kg [9]: 23.1% | inhibition of growth at 50 mg/kg [10]: 22.7% | inhibition of growth at 50 mg/kg [11]: 46.1% | inhibition of growth at 50 mg/kg [12]: 21.1% | inhibition of growth at 50 mg/kg [13]: 18.8% | mortality at 5 mg/kg [14]: 60% | mortality at 10 mg/kg [14]: 100% | activity against culex pipiens larvae (in words) [14]: still show high activity | inhibition at 100 µg/mL ([15]; treatment dose 100 μg/mL): 21.1% | inhibition at 500 µg/mL ([15]; treatment dose 500 μg/mL): 44.9% | inhibition at 100 µg/mL ([16]; treatment dose 100 μg/mL): 0% | inhibition at 500 µg/mL ([16]; treatment dose 500 μg/mL): 38.4% | inhibition at 100 µg/mL ([17]; treatment dose 100 μg/mL): 15.8% | inhibition at 500 µg/mL ([17]; treatment dose 500 μg/mL): 42.1% | inhibition of growth at 50 mg/kg [18]: 57.9% | Armyworm Mortality (%) [19]: 65% | inhibition at 50 mg/kg [20]: 18.2% | inhibition at 100 µg/mL ([21]; treatment dose 100 μg/mL): 13.5% | inhibition at 500 µg/mL ([21]; treatment dose 500 μg/mL): 44% | inhibition of growth at 50 mg/kg [23]: 14.3% | activity against armyworms, cotton bollworms and corn borers (in words) [24]: broad-spectrum activity

C[C@@H]1N[C@H](C(=O)N/N=C/c2ccccc2)Cc2c1[nH]c1ccccc21 [Ic-1, (1S, 3S)—N′-benzylidene-1-methyl-2,3,4,9-tetrahydropyridino [3,4-b] indol-3-formylhydrazine]
inhibition of growth at 50 mg/kg [1]: 52% | inhibition of growth at 50 mg/kg [2]: 72.7% | mortality at 600 mg/kg [3]: 55% | inhibition of growth at 50 mg/kg [4]: 58.8% | mortality at 600 mg/kg [5]: 60% | inhibition of growth at 50 mg/kg [6]: 26.9% | inhibition at 50 mg/kg [7]: 36.4% | inhibition of growth at 50 mg/kg [8]: 88.9% | inhibition of growth at 50 mg/kg [9]: 36.4% | inhibition of growth at 50 mg/kg [10]: 30.4% | inhibition of growth at 50 mg/kg [11]: 48.6% | inhibition of growth at 50 mg/kg [12]: 57.1% | inhibition of growth at 50 mg/kg [13]: 69.7% | mortality at 5 mg/kg [14]: 80% | mortality at 10 mg/kg [14]: 100% | activity against culex pipiens larvae (in words) [14]: still show high activity | inhibition at 100 µg/mL ([15]; treatment dose 100 μg/mL): 16% | inhibition at 500 µg/mL ([15]; treatment dose 500 μg/mL): 51.5% | inhibition at 100 µg/mL ([16]; treatment dose 100 μg/mL): 28.4% | inhibition at 500 µg/mL ([16]; treatment dose 500 μg/mL): 55.8% | inhibition at 100 µg/mL ([17]; treatment dose 100 μg/mL): 21.8% | inhibition at 500 µg/mL ([17]; treatment dose 500 μg/mL): 53.2% | inhibition of growth at 50 mg/kg [18]: 86.5% | Armyworm Mortality (%) [19]: 75% | inhibition at 50 mg/kg [20]: 60% | inhibition at 100 µg/mL ([21]; treatment dose 100 μg/mL): 19.6% | inhibition at 500 µg/mL ([21]; treatment dose 500 μg/mL): 56.3% | inhibition of growth at 50 mg/kg [23]: 53.8% | activity against armyworms, cotton bollworms and corn borers (in words) [24]: broad-spectrum activity

C[C@@H]1N[C@H](C(=O)NN=Cc2ccc[nH]2)Cc2c1[nH]c1ccccc21 [Ic-19, (1S, 3S)—N′-(pyrrole-2-methylene)-1-methyl-2,3,4,9-tetrahydropyridino [3,4-b] indol-3-formylhydrazine]
Bactericidal activity (%) Colletotrichum orbiculare [1]: 29.6% | Bactericidal activity (%) Cercospora arachidicola [2]: 23.5% | Cotton bollworm Mortality (%) ([3]; concentration 600 mg/kg): 50% | Bactericidal activity (%) Fusarium fujikuroi [4]: 14.3% | Bactericidal activity (%) Sclerotinia scleotiorum [6]: 58.8% | Bactericidal activity (%) Macrophoma kawatsukai [7]: 97.2% | Corn borer Mortality (%) [25]: 60% | Bactericidal activity (%) Botrytis cinerea [8]: 22.7% | Bactericidal activity (%) Cucumber fusarium wilt [9]: 23.1% | Bactericidal activity (%) potato late blight [10]: 24.0% | Bactericidal activity (%) Rhizoctonia solani [11]: 32.9% | Bactericidal activity (%) Alternaria solani [12]: 15.0% | Bactericidal activity (%) Phytophthora capsici [13]: 42.1% | activity against culex pipiens larvae (in words) [14]: still show high activity | Mosquito larvae Mortality (%) ([14]; concentration 5 mg/kg): 80% | Mosquito larvae Mortality (%) ([14]; concentration 10 mg/kg): 100% | Relative inhibition rate (%) In vivo therapy ([15]; treatment dose 100 μg/mL): 27.8% | Relative inhibition rate (%) In vivo therapy ([15]; treatment dose 500 μg/mL): 63.4% | Relative inhibition rate (%) In vitro activity ([16]; treatment dose 100 μg/mL): 8.8% | Relative inhibition rate (%) In vitro activity ([16]; treatment dose 500 μg/mL): 49.5% | Relative inhibition rate (%) In vivo protection ([17]; treatment dose 100 μg/mL): 30% | Relative inhibition rate (%) In vivo protection ([17]; treatment dose 500 μg/mL): 54.7% | Bactericidal activity (%) Rhizoctonia cereali [18]: 74.5% | Armyworm Mortality (%) [19]: 70% | Bactericidal activity (%) Bipolaria maydis ([20]; 50 mg/kg): 28.0% | Relative inhibition rate (%) In vivo inactivation ([21]; treatment dose 100 μg/mL): 20.2% | Relative inhibition rate (%) In vivo inactivation ([21]; treatment dose 500 μg/mL): 61.3% | anti-TMV activity compared with ningnanmycin [22]: equivalent to the activity of commercial variety ningnanmycin | Bactericidal activity (%) Fusarium graminearumt ([23]; 50 mg/kg): 41.4% | activity against armyworms, cotton bollworms and corn borers (in words) [24]: broad-spectrum activity
